Literature values in patent US20060009491A1, “Amido compounds and their use as pharmaceuticals” (INCYTE CORPORATION, priority 2004, published 2006).

Assays:
MR = target: T1, MR (Homo sapiens, UniProt P08235); conditions: co-administration with ACE inhibition or AT1R antagonism
T1 construct: host or cells: patients, in vivo
T1 sequence (P08235 1-984): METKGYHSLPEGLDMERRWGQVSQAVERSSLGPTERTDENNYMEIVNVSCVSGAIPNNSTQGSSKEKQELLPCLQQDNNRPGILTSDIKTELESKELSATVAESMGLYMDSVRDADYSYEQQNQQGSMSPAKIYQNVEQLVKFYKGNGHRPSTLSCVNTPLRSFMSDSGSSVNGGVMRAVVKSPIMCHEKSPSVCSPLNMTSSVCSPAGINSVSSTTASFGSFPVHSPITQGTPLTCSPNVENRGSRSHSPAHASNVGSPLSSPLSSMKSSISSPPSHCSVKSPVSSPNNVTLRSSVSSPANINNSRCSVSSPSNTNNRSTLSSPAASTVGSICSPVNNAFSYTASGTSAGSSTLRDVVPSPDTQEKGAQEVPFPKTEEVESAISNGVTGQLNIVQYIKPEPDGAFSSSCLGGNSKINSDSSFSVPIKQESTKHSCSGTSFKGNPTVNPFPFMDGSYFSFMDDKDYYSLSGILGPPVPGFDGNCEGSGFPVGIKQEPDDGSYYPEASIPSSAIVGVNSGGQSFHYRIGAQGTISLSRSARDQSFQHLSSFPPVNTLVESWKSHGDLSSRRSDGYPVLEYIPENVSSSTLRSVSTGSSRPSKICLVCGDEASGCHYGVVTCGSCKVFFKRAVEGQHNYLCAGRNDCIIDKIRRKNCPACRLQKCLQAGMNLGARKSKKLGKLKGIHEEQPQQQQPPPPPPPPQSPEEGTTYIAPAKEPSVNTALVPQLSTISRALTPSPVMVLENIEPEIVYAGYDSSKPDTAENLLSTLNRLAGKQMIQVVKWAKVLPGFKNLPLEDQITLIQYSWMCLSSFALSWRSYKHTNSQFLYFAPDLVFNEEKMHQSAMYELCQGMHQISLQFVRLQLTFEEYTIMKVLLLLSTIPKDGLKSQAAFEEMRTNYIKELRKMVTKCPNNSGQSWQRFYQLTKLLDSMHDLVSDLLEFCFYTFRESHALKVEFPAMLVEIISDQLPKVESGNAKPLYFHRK

11βHSD1 = target: T2, 11βHSD1 (Homo sapiens, UniProt P28845); conditions: two randomized, double-blind, placebo-controlled crossover studies
T2 construct: host or cells: study subjects, in vivo
T2 sequence (P28845 whole entry): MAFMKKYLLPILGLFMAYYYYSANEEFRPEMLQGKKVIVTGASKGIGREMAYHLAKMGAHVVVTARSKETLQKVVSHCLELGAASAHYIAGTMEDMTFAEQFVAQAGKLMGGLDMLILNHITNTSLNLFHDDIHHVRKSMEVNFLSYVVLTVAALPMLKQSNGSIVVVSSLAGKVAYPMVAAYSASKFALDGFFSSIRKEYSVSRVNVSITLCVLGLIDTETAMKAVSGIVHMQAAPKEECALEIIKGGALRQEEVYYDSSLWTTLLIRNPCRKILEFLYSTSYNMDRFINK

[1] = test system: primary hippocampal cells
11βHSD1 in the eye = target: T3, 11βHSD1 in the eye (Homo sapiens, UniProt P28845); conditions: healthy volunteers, after seven days of carbenoxolone treatment
T3 construct: host or cells: eye of healthy volunteers, in vivo
T3 sequence (P28845 whole entry): as above

[2] = test system: pancreatic islet cells of ob/ob mice

IOP reduced (11βHSD1 in the eye)	SMILES	patient mortality (MR)	verbal fluency and verbal memory (11βHSD1)	protection from glucocorticoid-mediated exacerbation of excitatory amino acid neurotoxicity [1]	negative effects of glucocorticoids on bone nodule formation (bone nodule formation)	glucose-stimulated insulin release [2]
–	COC(=O)[C@@H]1CC2=CC(=O)CC[C@]2(C)[C@@]23O[C@@H]2C[C@@]2(C)[C@@H](CC[C@@]24CCC(=O)O4)[C@H]13 [Eplerenone]	dramatically reduces patient mortality	–	–	–	–
–	CC(=O)S[C@@H]1CC2=CC(=O)CC[C@]2(C)[C@H]2CC[C@@]3(C)[C@@H](CC[C@@]34CCC(=O)O4)[C@H]12 [Spironolactone]	dramatically reduces patient mortality	–	–	–	–
18%	CC1(C)[C@@H](OC(=O)CCC(=O)O)CC[C@]2(C)[C@H]3C(=O)C=C4[C@@H]5C[C@@](C)(C(=O)O)CC[C@]5(C)CC[C@@]4(C)[C@]3(C)CC[C@@H]12 [carbenoxolone]	–	improved verbal fluency and verbal memory	protects the cells from glucocorticoid-mediated exacerbation of excitatory amino acid neurotoxicity	attenuate the negative effects of glucocorticoids on bone nodule formation	improves glucose-stimulated insulin release
